Experiments:
[1] = brimonidine tartrate + cyclosporine nanoemulsion formulation
Description: The partitioning of active pharmaceutical ingredients in oil and aqueous phases of these exemplary nanoemulsion formulations were determined using RP-HPLC methods. […] In nanoemulsion formulation, oil and aqueous phase were separated using ultrafiltration unit by centrifugation process. Quantity of APIs in these oil and aqueous phase was quantified using HPLC method.

[2] = ophthalmic solution 5.0%, administered twice daily; cited from earlier work

fraction of API partitioned in aqueous phase ([1]; aqueous phase) [%]	fraction of API partitioned in oil phase ([1]; oil phase) [%]	Structure (SMILES)	symptoms of ocular discomfort and eye dryness compared with placebo [2]
~70	~30	Brc1c(NC2=NCCN2)ccc2nccnc12 [brimonidine, 5-Bromo-N-(4,5-dihydro-1H-imidazol-2-yl) quinoxalin-6-amine]	
		CS(=O)(=O)c1cccc(C[C@H](NC(=O)c2c(Cl)cc3c(c2Cl)CCN(C(=O)c2ccc4ccoc4c2)C3)C(=O)O)c1 [Lifitegrast, N-{[2-(1-Benzofuran-6-ylcarbonyl)-5,7-dichloro-1,2,3,4-tetrahydro-6-isoquinolinyl]carbonyl}-3-(methylsulfonyl)-L-phenylalanine]	improve symptoms of ocular discomfort and eye dryness

From patent US20190008920A1, “OPHTHALMIC COMPOSITIONS AND METHODS OF USE” (Ocugen, Inc., priority 2017, published 2019)
